{"source": "patent US12679824B2", "about": "(Hoffmann-La Roche Inc., priority 2020, dated 2026)"}
{"system": "Acinetobacter baumannii ATCC17961", "assay": "90% Growth Inhibitory Concentration (IC90) determination, antimicrobial susceptibility testing", "assay_type": "cell-based", "conditions": "Acinetobacter baumannii, ATCC17961, 16 h, Acinetobacter baumannii ATCC17961; Iso-Sensitest broth; growth by optical density at 600 nm over 16h; concentration inhibiting 90% of the growth; read-out: ATCC 17961 IC90", "in_short": "(§1)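 Broth microdilution in Iso-Sensitest medium, compounds twofold diluted (e.g. 50–0.097 μM final), inoculum ~5×10^(5) CFU/ml, 35±2° C. OD600 was read every 20 min over 16 h. IC90 was derived from growth inhibition during logarithmic growth.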", "units": {"IC90": "nM"}}
{"smiles": "CC(C)[C@H]1CN(C(=O)c2ccc(NC(=O)c3ncc(-c4cn(-c5ccc(N)cn5)nc4C(F)(F)F)n3C)cc2Cl)CCN1", "note": "[Example Z58, 5-[1-(5-amino-2-pyridyl)-3-(trifluoromethyl)pyrazol-4-yl]-N-[3-chloro-4-[(3S)-3-isopropylpiperazine-1-carbonyl]phenyl]-1-methyl-imidazole-2-carboxamide]", "IC90": 560}
{"smiles": "Cn1c(-c2cn(-c3ccc(N)cn3)nc2C(F)(F)F)cnc1C(=O)Nc1ccc(C(=O)N2CC3CNC3C2)c(Cl)c1", "note": "(stereo not drawn) [Example Z59, 5-[1-(5-amino-2-pyridyl)-3-(trifluoromethyl)pyrazol-4-yl]-N-[3-chloro-4-(3,6-diazabicyclo[3.2.0]heptane-3-carbonyl)phenyl]-1-methyl-imidazole-2-carboxamide]", "IC90": 1310}
{"smiles": "Cn1c(-c2cn(-c3ccc(N)cn3)nc2C(F)(F)F)cnc1C(=O)Nc1ccc(C(=O)N2CCCNCC2)c(Cl)c1", "note": "[Example Z60, 5-[1-(5-amino-2-pyridyl)-3-(trifluoromethyl)pyrazol-4-yl]-N-[3-chloro-4-(1,4-diazepane-1-carbonyl)phenyl]-1-methyl-imidazole-2-carboxamide]", "IC90": 400}
{"smiles": "C[C@H]1CN(C(=O)c2ccc(NC(=O)c3ncc(-c4cn(-c5ccc(N)cn5)nc4C(F)(F)F)n3C)cc2Cl)CCN1", "note": "[Example Z61, 5-[1-(5-amino-2-pyridyl)-3-(trifluoromethyl)pyrazol-4-yl]-N-[3-chloro-4-[(3S)-3-methylpiperazine-1-carbonyl]phenyl]-1-methyl-imidazole-2-carboxamide]", "IC90": 700}
{"smiles": "Cn1c(-c2cn(-c3ccc(N)cn3)nc2C(F)(F)F)cnc1C(=O)Nc1ccc(C(=O)N2C3CCC2CNC3)c(Cl)c1", "note": "[Example Z62, 5-[1-(5-amino-2-pyridyl)-3-(trifluoromethyl)pyrazol-4-yl]-N-[3-chloro-4-(3,8-diazabicyclo[3.2.1]octane-8-carbonyl)phenyl]-1-methyl-imidazole-2-carboxamide]", "IC90": 380}
{"smiles": "CC[C@@H]1CNCCN1C(=O)c1ccc(NC(=O)c2ncc(-c3cn(-c4ccc(N)cn4)nc3C(F)(F)F)n2C)cc1Cl", "note": "[Example Z63, 5-[1-(5-amino-2-pyridyl)-3-(trifluoromethyl)pyrazol-4-yl]-N-[3-chloro-4-[(2R)-2-ethylpiperazine-1-carbonyl]phenyl]-1-methyl-imidazole-2-carboxamide]", "IC90": 1170}
{"smiles": "CC[C@H]1CNCCN1C(=O)c1ccc(NC(=O)c2ncc(-c3cn(-c4ccc(N)cn4)nc3C(F)(F)F)n2C)cc1Cl", "note": "[Example Z64, 5-[1-(5-amino-2-pyridyl)-3-(trifluoromethyl)pyrazol-4-yl]-N-[3-chloro-4-[(2S)-2-ethylpiperazine-1-carbonyl]phenyl]-1-methyl-imidazole-2-carboxamide]", "IC90": 440}
{"smiles": "Cn1c(-c2cn(-c3ccc(N)cn3)nc2C(F)(F)F)cnc1C(=O)Nc1ccc(C(=O)NCCN2CCNCC2)c(Cl)c1", "note": "[Example Z65, 5-[1-(5-amino-2-pyridyl)-3-(trifluoromethyl)pyrazol-4-yl]-N-[3-chloro-4-(2-piperazinoethylcarbamoyl)phenyl]-1-methyl-imidazole-2-carboxamide]", "IC90": 760}
{"smiles": "Cn1c(-c2cn(-c3ccc(N)cn3)nc2C(F)(F)F)cnc1C(=O)Nc1ccc(C(=O)N2C[C@H]3C[C@@H]2CN3)c(Cl)c1", "note": "[Example Z66, 5-[1-(5-amino-2-pyridyl)-3-(trifluoromethyl)pyrazol-4-yl]-N-[3-chloro-4-[(1R,4R)-2,5-diazabicyclo[2.2.1]heptane-2-carbonyl]phenyl]-1-methyl-imidazole-2-carboxamide]", "IC90": 1160}
{"smiles": "Cn1c(-c2cn(-c3ccc(N)cn3)nc2C(F)(F)F)cnc1C(=O)Nc1ccc(C(=O)N2CCNCC23CC3)c(Cl)c1", "note": "[Example Z67, 5-[1-(5-amino-2-pyridyl)-3-(trifluoromethyl)pyrazol-4-yl]-N-[3-chloro-4-(4,7-diazaspiro[2.5]octane-4-carbonyl)phenyl]-1-methyl-imidazole-2-carboxamide]", "IC90": 890}
{"smiles": "C[C@H]1NCCN(C(=O)c2ccc(NC(=O)c3ncc(-c4cn(-c5ccc(N)cn5)nc4C(F)(F)F)n3C)cc2Cl)[C@H]1C", "note": "[Example Z68, 5-[1-(5-amino-2-pyridyl)-3-(trifluoromethyl)pyrazol-4-yl]-N-[3-chloro-4-[(2S,3R)-2,3-dimethylpiperazine-1-carbonyl]phenyl]-1-methyl-imidazole-2-carboxamide]", "IC90": 650}
{"smiles": "COCC1CN(C(=O)c2ccc(NC(=O)c3ncc(-c4cn(-c5ccc(N)cn5)nc4C(F)(F)F)n3C)cc2Cl)CCN1", "note": "(stereo not drawn) [Example Z69, 5-[1-(5-amino-2-pyridyl)-3-(trifluoromethyl)pyrazol-4-yl]-N-[3-chloro-4-[3-(methoxymethyl)piperazine-1-carbonyl]phenyl]-1-methyl-imidazole-2-carboxamide]", "IC90": 1310}
{"smiles": "Cn1c(-c2cn(-c3ccc(N)cn3)nc2C(F)(F)F)cnc1C(=O)Nc1ccc(C(=O)N2C[C@H]3CN[C@H]3C2)c(Cl)c1", "note": "[Example Z70, 5-[1-(5-amino-2-pyridyl)-3-(trifluoromethyl)pyrazol-4-yl]-N-[3-chloro-4-[(1R,5R)-3,6-diazabicyclo[3.2.0]heptane-3-carbonyl]phenyl]-1-methyl-imidazole-2-carboxamide]", "IC90": 1370}
{"smiles": "Cn1c(-c2cn(-c3ncc(N)cc3F)nc2C(F)(F)F)cnc1C(=O)Nc1ccc(C(=O)N2CCN(C(=O)C3CCNCC3)CC2)c(Cl)c1", "note": "[Example Z71, 5-[1-(5-amino-3-fluoro-2-pyridyl)-3-(trifluoromethyl)pyrazol-4-yl]-N-[3-chloro-4-[4-(piperidine-4-carbonyl)piperazine-1-carbonyl]phenyl]-1-methyl-imidazole-2-carboxamide]", "IC90": 310}
{"smiles": "COc1cc(-n2cc(-c3cnc(C(=O)Nc4ccc(C(=O)N5CCN(C(=O)C6CCNCC6)CC5)c(Cl)c4)n3C)c(C(F)(F)F)n2)ccn1", "note": "[Example Z73, N-[3-chloro-4-(4-isonipecotoylpiperazine-1-carbonyl)phenyl]-5-[1-(2-methoxy-4-pyridyl)-3-(trifluoromethyl)pyrazol-4-yl]-1-methyl-imidazole-2-carboxamide]", "IC90": 950}
{"smiles": "Cn1c(-c2cn(-c3cnc(N)c(F)c3)nc2C(F)(F)F)cnc1C(=O)Nc1ccc(C(=O)N2CCN(C(=O)C3CCNCC3)CC2)c(Cl)c1", "note": "[Example Z74, 5-[1-(6-amino-5-fluoro-3-pyridyl)-3-(trifluoromethyl)pyrazol-4-yl]-N-[3-chloro-4-[4-(piperidine-4-carbonyl)piperazine-1-carbonyl]phenyl]-1-methyl-imidazole-2-carboxamide]", "IC90": 750}
{"smiles": "COc1ccc(-n2cc(-c3cnc(C(=O)Nc4ccc(C(=O)N5CCN(C(=O)C6CCNCC6)CC5)c(Cl)c4)n3C)c(C(F)(F)F)n2)cn1", "note": "[Example Z75, N-[3-chloro-4-(4-isonipecotoylpiperazine-1-carbonyl)phenyl]-5-[1-(6-methoxy-3-pyridyl)-3-(trifluoromethyl)pyrazol-4-yl]-1-methyl-imidazole-2-carboxamide]", "IC90": 1110}
{"smiles": "CCN(CC)C(=O)c1ccc(NC(=O)c2ncc(-c3cn(-c4ccc(N)cn4)nc3C(F)(F)F)n2C)cc1Cl", "note": "[Example Z76, 5-[1-(5-amino-2-pyridyl)-3-(trifluoromethyl)pyrazol-4-yl]-N-[3-chloro-4-(diethylcarbamoyl)phenyl]-1-methyl-imidazole-2-carboxamide]", "IC90": 1140}
{"smiles": "Cc1cc(-n2cc(-c3cnc(C(=O)Nc4ccc(C(=O)N5CCN(C(=O)C6CCNCC6)CC5)c(Cl)c4)n3C)c(C(F)(F)F)n2)cnc1N", "note": "[Example Z77, 5-[1-(6-amino-5-methyl-3-pyridyl)-3-(trifluoromethyl)pyrazol-4-yl]-N-[3-chloro-4-[4-(piperidine-4-carbonyl)piperazine-1-carbonyl]phenyl]-1-methyl-imidazole-2-carboxamide]", "IC90": 410}
{"smiles": "Cc1nc(N)ccc1-n1cc(-c2cnc(C(=O)Nc3ccc(C(=O)N4CCN(C(=O)C5CCNCC5)CC4)c(Cl)c3)n2C)c(C(F)(F)F)n1", "note": "[Example Z79, 5-[1-(6-amino-2-methyl-3-pyridyl)-3-(trifluoromethyl)pyrazol-4-yl]-N-[3-chloro-4-[4-(piperidine-4-carbonyl)piperazine-1-carbonyl]phenyl]-1-methyl-imidazole-2-carboxamide]", "IC90": 1200}
{"smiles": "Cn1c(-c2cn(-c3cc(Cl)c(N)cn3)nc2C(F)(F)F)cnc1C(=O)Nc1ccc(C(=O)N2CCN(C(=O)C3CCNCC3)CC2)c(Cl)c1", "note": "[Example Z80, 5-[1-(5-amino-4-chloro-2-pyridyl)-3-(trifluoromethyl)pyrazol-4-yl]-N-[3-chloro-4-[4-(piperidine-4-carbonyl)piperazine-1-carbonyl]phenyl]-1-methyl-imidazole-2-carboxamide]", "IC90": 380}
{"smiles": "Cc1cc(N)cnc1-n1cc(-c2cnc(C(=O)Nc3ccc(C(=O)N4CCN(C(=O)C5CCNCC5)CC4)c(Cl)c3)n2C)c(C(F)(F)F)n1", "note": "[Example Z81, 5-[1-(5-amino-3-methyl-2-pyridyl)-3-(trifluoromethyl)pyrazol-4-yl]-N-[3-chloro-4-[4-(piperidine-4-carbonyl)piperazine-1-carbonyl]phenyl]-1-methyl-imidazole-2-carboxamide]", "IC90": 750}
{"smiles": "Cc1cc(-n2cc(-c3cnc(C(=O)Nc4ccc(C(=O)N5CCN(C(=O)C6CCNCC6)CC5)c(Cl)c4)n3C)c(C(F)(F)F)n2)ncc1N", "note": "[Example Z82, 5-[1-(5-amino-4-methyl-2-pyridyl)-3-(trifluoromethyl)pyrazol-4-yl]-N-[3-chloro-4-[4-(piperidine-4-carbonyl)piperazine-1-carbonyl]phenyl]-1-methyl-imidazole-2-carboxamide]", "IC90": 340}
{"system": "Acinetobacter baumannii ATCC17961", "assay": "90% Growth Inhibitory Concentration (IC90) determination, antimicrobial susceptibility testing", "assay_type": "cell-based", "conditions": "Acinetobacter baumannii, ATCC17961, 16 h, read-out: ATCC 17961 IC90", "in_short": "as §1", "units": {"IC90": "nM"}}
{"smiles": "Cn1c(-c2cn(-c3ccc(N)c(F)n3)nc2C(F)(F)F)cnc1C(=O)Nc1ccc(C(=O)N2CCN(C(=O)C3CCNCC3)CC2)c(Cl)c1", "note": "[Example Z72, 5-[1-(5-amino-6-fluoro-2-pyridyl)-3-(trifluoromethyl)pyrazol-4-yl]-N-[3-chloro-4-[4-(piperidine-4-carbonyl)piperazine-1-carbonyl]phenyl]-1-methyl-imidazole-2-carboxamide]", "IC90": 250}
